Several values for one entry are separate records, joined by “and”; a condition that tells them apart may be missing. Identical values can stand only once.
Tests used:
Type in all cases: cell-based, human
22Rv1 cells [1] = test: Cell cycle assay (PI flow cytometry); conditions: for Cell cycle percentages ( % ) G0/G1 / Cell cycle percentages ( % ) G2/M / Cell cycle percentages ( % ) S: replicates
DU145 cells [2] = test: Cell cycle assay (PI flow cytometry); conditions: for Cell cycle percentages ( % ) G0/G1 / Cell cycle percentages ( % ) G2/M / Cell cycle percentages ( % ) S: replicates
PC-3 cells = test: Cell growth assay (5-day course); conditions: for Relative proliferation rate mean / Relative proliferation rate / optical density: PC-3; for Relative proliferation rate / optical density: replicates
22Rv1 cells [3] = test: Cell growth assay (5-day course)
DU145 cells [4] = test: Cell growth assay (5-day course)

CCN1CCN(C(=O)c2ccc(Nc3ncc(F)c(-c4ccc5nc(N(C)C)sc5c4)n3)nc2)CC1 [YK-2-69]
Cell cycle percentages ( % ) G0/G1 (22Rv1 cells [1]; 22Rv1, 1 μM): 66.26% and 67.95% and 69.26% | Cell cycle percentages ( % ) G2/M (22Rv1 cells [1]; 22Rv1, 1 μM): 16.83% and 16.42% and 15% | Cell cycle percentages ( % ) S (22Rv1 cells [1]; 22Rv1, 1 μM): 16.91% and 15.43% and 15.74% | Cell cycle percentages ( % ) G0/G1 (22Rv1 cells [1]; 22Rv1, 2 μM): 71.88% and 73.05% and 74.35% | Cell cycle percentages ( % ) G2/M (22Rv1 cells [1]; 22Rv1, 2 μM): 13.63% and 11.7% and 11.68% | Cell cycle percentages ( % ) S (22Rv1 cells [1]; 22Rv1, 2 μM): 14.49% and 15.25% and 13.97% | cell cycle (in words) (22Rv1 cells [1]; 22Rv1 cells, concentration-dependent): arrested cell cycle at the G0/G1 phase | Cell cycle percentages ( % ) G0/G1 (DU145 cells [2]; DU145, 2 μM): 55.97% and 56.66% and 57.2% | Cell cycle percentages ( % ) G2/M (DU145 cells [2]; DU145, 2 μM): 25.7% and 23.86% and 21.92% | Cell cycle percentages ( % ) S (DU145 cells [2]; DU145, 2 μM): 18.33% and 19.48% and 20.88% | Cell cycle percentages ( % ) G0/G1 (DU145 cells [2]; DU145, 4 μM): 57.12% and 58.35% and 59.96% | Cell cycle percentages ( % ) G2/M (DU145 cells [2]; DU145, 4 μM): 23.02% and 22.58% and 21.06% | Cell cycle percentages ( % ) S (DU145 cells [2]; DU145, 4 μM): 19.86% and 19.07% and 18.98% | Cell cycle percentages ( % ) G0/G1 (DU145 cells [2]; DU145, 8 μM): 61.67% and 60.91% and 63.23% | Cell cycle percentages ( % ) G2/M (DU145 cells [2]; DU145, 8 μM): 18.53% and 21.24% and 18.93% | Cell cycle percentages ( % ) S (DU145 cells [2]; DU145, 8 μM): 19.8% and 17.85% and 17.84% | cell cycle (in words) (DU145 cells [2]; DU145 cells, concentration-dependent): arrested cell cycle at the G0/G1 phase | Relative proliferation rate mean (PC-3 cells; 1 µM, day 0): 1 | Relative proliferation rate (PC-3 cells; 1 µM, day 0): 1 | optical density (PC-3 cells; 1 µM, day 0): 0.270 | Relative proliferation rate mean (PC-3 cells; 1 µM, day 1): 1.314 | Relative proliferation rate (PC-3 cells; 1 µM, day 1): 1.339 and 1.335 and 1.268 | optical density (PC-3 cells; 1 µM, day 1): 0.361 and 0.36 and 0.342 | Relative proliferation rate mean (PC-3 cells; 1 µM, day 2): 1.774 | Relative proliferation rate (PC-3 cells; 1 µM, day 2): 1.713 and 1.81 and 1.799 | optical density (PC-3 cells; 1 µM, day 2): 0.462 and 0.488 and 0.485 | Relative proliferation rate mean (PC-3 cells; 1 µM, day 3): 3.173 | Relative proliferation rate (PC-3 cells; 1 µM, day 3): 3.23 and 3.148 and 3.141 | optical density (PC-3 cells; 1 µM, day 3): 0.871 and 0.849 and 0.847 | Relative proliferation rate mean (PC-3 cells; 1 µM, day 4): 6.7021 | Relative proliferation rate (PC-3 cells; 1 µM, day 4): 6.623 and 6.6712 and 6.812 | optical density (PC-3 cells; 1 µM, day 4): 1.786 and 1.799 and 1.837 | Relative proliferation rate mean (PC-3 cells; 2 µM, day 0): 1 | Relative proliferation rate (PC-3 cells; 2 µM, day 0): 1 | optical density (PC-3 cells; 2 µM, day 0): 0.273 | Relative proliferation rate mean (PC-3 cells; 2 µM, day 1): 1.2692 | Relative proliferation rate (PC-3 cells; 2 µM, day 1): 1.28 and 1.295 and 1.233 | optical density (PC-3 cells; 2 µM, day 1): 0.35 and 0.354 and 0.337 | Relative proliferation rate mean (PC-3 cells; 2 µM, day 2): 1.697 | Relative proliferation rate (PC-3 cells; 2 µM, day 2): 1.752 and 1.668 and 1.672 | optical density (PC-3 cells; 2 µM, day 2): 0.479 and 0.456 and 0.457 | Relative proliferation rate mean (PC-3 cells; 2 µM, day 3): 2.625 | Relative proliferation rate (PC-3 cells; 2 µM, day 3): 2.612 and 2.575 and 2.688 | optical density (PC-3 cells; 2 µM, day 3): 0.714 and 0.704 and 0.735 | Relative proliferation rate mean (PC-3 cells; 2 µM, day 4): 5.619 | Relative proliferation rate (PC-3 cells; 2 µM, day 4): 5.662 and 5.571 and 5.625 | optical density (PC-3 cells; 2 µM, day 4): 1.548 and 1.523 and 1.538 | Relative proliferation rate mean (PC-3 cells; 4 µM, day 0): 1 | Relative proliferation rate (PC-3 cells; 4 µM, day 0): 1 | optical density (PC-3 cells; 4 µM, day 0): 0.274 | Relative proliferation rate mean (PC-3 cells; 4 µM, day 1): 1.161 | Relative proliferation rate (PC-3 cells; 4 µM, day 1): 1.103 and 1.191 (2×) | optical density (PC-3 cells; 4 µM, day 1): 0.302 and 0.326 (2×) | Relative proliferation rate mean (PC-3 cells; 4 µM, day 2): 1.646 | Relative proliferation rate (PC-3 cells; 4 µM, day 2): 1.545 and 1.706 and 1.687 | optical density (PC-3 cells; 4 µM, day 2): 0.423 and 0.467 and 0.462 | Relative proliferation rate mean (PC-3 cells; 4 µM, day 3): 1.9905 | Relative proliferation rate (PC-3 cells; 4 µM, day 3): 2.023 and 1.947 and 2.001 | optical density (PC-3 cells; 4 µM, day 3): 0.554 and 0.533 and 0.548 | Relative proliferation rate mean (PC-3 cells; 4 µM, day 4): 3.8824 | Relative proliferation rate (PC-3 cells; 4 µM, day 4): 3.992 and 3.985 and 3.671 | optical density (PC-3 cells; 4 µM, day 4): 1.093 and 1.091 and 1.005 | cell proliferation, 5-day course/colony (in words) (PC-3 cells; PC-3 cells, dose-dependent): significantly inhibited the cell proliferation | Relative proliferation rate mean (22Rv1 cells [3]; 22Rv1, 0.5 µM, day 1): 1.179 | Relative proliferation rate mean (22Rv1 cells [3]; 22Rv1, 0.5 µM, day 2): 1.871 | Relative proliferation rate mean (22Rv1 cells [3]; 22Rv1, 0.5 µM, day 3): 2.62 | Relative proliferation rate mean (22Rv1 cells [3]; 22Rv1, 0.5 µM, day 4): 3.018 | Relative proliferation rate mean (22Rv1 cells [3]; 22Rv1, 1 µM, day 1): 1.007 | Relative proliferation rate mean (22Rv1 cells [3]; 22Rv1, 1 µM, day 2): 1.59 | Relative proliferation rate mean (22Rv1 cells [3]; 22Rv1, 1 µM, day 3): 1.919 | Relative proliferation rate mean (22Rv1 cells [3]; 22Rv1, 1 µM, day 4): 2.135 | Relative proliferation rate mean (22Rv1 cells [3]; 22Rv1, 2 µM, day 1): 0.9977 | Relative proliferation rate mean (22Rv1 cells [3]; 22Rv1, 2 µM, day 2): 1.414 | Relative proliferation rate mean (22Rv1 cells [3]; 22Rv1, 2 µM, day 3): 1.775 | Relative proliferation rate mean (22Rv1 cells [3]; 22Rv1, 2 µM, day 4): 1.902 | cell proliferation, 5-day course/colony (in words) (22Rv1 cells [3]; 22Rv1 cells, dose-dependent): significantly inhibited the cell proliferation | Relative proliferation rate mean (DU145 cells [4]; DU145, 4 μM, day 1): 1.572 | Relative proliferation rate mean (DU145 cells [4]; DU145, 4 μM, day 2): 2.148 | Relative proliferation rate mean (DU145 cells [4]; DU145, 4 μM, day 3): 4.361 | Relative proliferation rate mean (DU145 cells [4]; DU145, 4 μM, day 4): 5.61 | Relative proliferation rate mean (DU145 cells [4]; DU145, 8 μM, day 1): 1.538 | Relative proliferation rate mean (DU145 cells [4]; DU145, 8 μM, day 2): 2.008 | Relative proliferation rate mean (DU145 cells [4]; DU145, 8 μM, day 3): 3.775 | Relative proliferation rate mean (DU145 cells [4]; DU145, 8 μM, day 4): 4.448 | Relative proliferation rate mean (DU145 cells [4]; DU145, 12 μM, day 1): 1.322 | Relative proliferation rate mean (DU145 cells [4]; DU145, 12 μM, day 2): 1.207 | Relative proliferation rate mean (DU145 cells [4]; DU145, 12 μM, day 3): 1.763 | Relative proliferation rate mean (DU145 cells [4]; DU145, 12 μM, day 4): 2.506 | cell proliferation, 5-day course/colony (in words) (DU145 cells [4]; DU145 cells, dose-dependent): significantly inhibited the cell proliferation

Source: PMC9133015 (Nature Communications, 2022)
